Source: US20240058292A1, “PHARMACEUTICAL COMPOSITION FOR TREATING CANCER, AND PREPARATION METHOD AND USE THEREOF” (priority 2020, published 2024)

Legend:
[1] = tested on: Human brain astroblastoma cell line U-87MG; assay: Tumor-suppressing effect on subcutaneously transplanted U-87MG tumors in nude mice (tumor weight, IRTW); assay type: in vivo, BALB/C-nu/nu mice; conditions: intraperitoneal injection; for Tumor-suppressing rate (%): IRTW vs model group; for Tumor weight: U-87MG tumor, end of experiment, mean±SD
Procedure: 4. Laboratory animals • Animal species: BALB/C-nu/nu mice • Animal grade: SPF grade • Gender and quantity:42 females • Animal age at the start of an experiment: 6 weeks old • Animal body weight at the start of an experiment: 18±2 g • Animal source: Vital River Laboratory Animal Technology Co., Ltd.
Cell source and cultivation conditions: Human brain astroblastoma cell line U-87MG: which came from the Cell Resource Center of the Shanghai Institutes for Biological Sciences (SIBS); medium: MEM medium including 1% penicillin-streptomycin sulfate mixed solution (100 ×) and 10% fetal bovine serum (FBS) (from Australia); cultivation conditions: 5% CO2 and 37° C.; and the cell line was frozen by Marine Biomedical Research Institute of Qingdao.
The cell line U-87MG stored in liquid nitrogen was recovered, inoculated in a corresponding medium including 10% FBS, 100 U/mL penicillin, and 100 […] streptomycin, and cultivated in the cell culture incubator at 37° C. and 5% CO2. The cells were passaged every two days.
After the cells were passaged four times, resulting cells were collected through digestion with 0.05% trypsin-EDTA, counted under a microscope, and resuspended with a medium to obtain a cell suspension with 5×10^7 cells/mL; a mouse was routinely disinfected, and 0.2 mL of the cell suspension was subcutaneously inoculated in an axillary region of a right forelimb of the mouse; and a resulting tumor tissue was aseptically taken out, weighed, diluted with a sodium chloride injection according to a mass-to-volume ratio of 1:4, and then ground, then a mouse was routinely disinfected, and 0.2 mL of a resulting suspension was subcutaneously inoculated in an axillary region of a right forelimb of the mouse for passage, where the passage was continuously conducted twice. During this period, the mice were raised normally, and the states and tumor growth conditions of the mice were observed and recorded every week.
When a tumor volume in a tumor-bearing mouse to be passaged was about 1,200 mm 3, a tumor was ground and transplanted by a same method for molding. After the tumor inoculation was completed, a body weight of a mouse was measured, and mice were randomly selected and divided into 6 groups with 7 mice per group. After tumor colonization, the administration was started, which was recorded as Day 1 (D1). […]
After the experiment was completed, tumor tissues of animals that died unexpectedly and surviving animals that were euthanized each were peeled off and weighed, and a tumor weight difference of each group was calculated to further calculate a tumor-suppressing rate (IRTW) according to the following formula: […]
It was required in this scheme that measured and observed data results were manually recorded in appropriate forms or directly acquired by a computer. […]

[2] = General clinical observation and body weight of tumor-bearing mice during administration; conditions: mouse, in vivo
Procedure: According to body weights, animals were randomly divided into 6 groups, with 7 animals per group.
Observed animals: All animals
Observation frequency and time: The animals were observed once before each time of administration during the experiment, and administration and observation results were recorded.
Observation content: including, but not limited to, tumor growth, animal mental states, eating and drinking conditions, or the like.
Detected animals: All animals
Detection time: A body weight of an animal was measured and recorded when grouping (namely, before the first administration) (D1), before each subsequent administration, and before euthanasia.
A body weight and relevant information of an animal were measured and recorded if the animal died unexpectedly.

[3] = 5-Fluorouracil 18 mg/kg, twice a week

Structure (SMILES) | Tumor-suppressing rate (%) [1, 3] [%] | Tumor weight [1, 3] | Body weight of mice during administration [2] | Tumor-suppressing rate (%) ([1]; TMZ 25 mg/kg, once every day) | Tumor weight ([1]; TMZ 25 mg/kg, once every day)
O=c1[nH]cc(F)c(=O)[nH]1 [5-Fluorouracil] | 52.7 | 1.3305 ± 0.6525 | reduced at a late stage of administration |  | 
Cn1nnc2c(C(N)=O)ncn2c1=O [TMZ, temozolomide] |  |  |  | 99.5 | 0.0134 ± 0.0091
